pIC50: −log10 of the molar value.
System: 22Rv1 cells
Test: 22Rv1 cell viability (CCK-8) antiproliferation assay
Format: cell-based, human
Details: for pIC50: 22Rv1 cells, means of two independent experiments (n = 2)
Experimental: The 22Rv1 prostate cancer cell line in this study was purchased from KeyGEN Biotech Co. Ltd. (Nanjing, Jiangsu, China ). The cells were cultured in RPMI 1640 medium and maintained at 37 °C in a 5% CO2 incubator. For the cell viability assay, the cell slurry was diluted to required volume at a density of 80,000 cells/mL. Then, 100 μL the cell slurry was seeded in each well of the 96-well plate. The cells were incubated for 72 h at 37 °C, 5% CO2 under humidified condition. The reference and test compounds solution (200×) were prepared with DMSO and were diluted from 200× to 1× with culture medium (RPMI 1640 medium without phenol red and containing 10% fetal calf serum, penicillin (100U/mL), streptomycin (100 μg/mL) and 0.1 nM DHT). The previous culture medium was removed and 200 μL/well of the compound solution (1×) was added to assay plate (final conc: 1×). Then the cells were incubated at 37 °C, 5% CO2 under humidified conditions. 5 Days later, the CCK-8 assay reagent was equilibrated at room temperature for 30 min prior to use. CCK-8 was mixed with fresh medium at a ratio of 1:10 and 100 μL of the diluted CCK8 reagent was added to each well and the plates were incubated for 4.5 h at 37 °C. Finally, absorbance value (OD value) was read on plate reader. GraphPad Prism v5.0 software was used to process data for IC50.

pIC50 (Table 1) | pIC50 (Homo sapiens, Table 2) | Compound | other results
6.10 | – | 2-(5′-(3-Cyclopropylureido)-2′′,4′′-dioxo-2′H-dispiro[cyclopropane-1,3′-indene-1′,5′′-oxazolidin]-3′′-yl)-N-(4-fluorobenzyl)-N-((S)-1,1,1-trifluoropropan-2-yl)acetamide [A3] | –
– | 5.86 | C[C@H](N(Cc1ccc2c(c1)OC(F)(F)O2)C(=O)CN1C(=O)O[C@@]2(CCc3cc(-c4cnn(C)c4)ccc32)C1=O)C(F)(F)F [B1, N-((2,2-Difluorobenzo[d][1,3]dioxol-5-yl)methyl)-2-((R)-5-(1-methyl-1H-pyrazol-4-yl)-2′,4′-dioxo-2,3-dihydrospiro[indene-1,5′-oxazolidin]-3′-yl)-N-((S)-1,1,1-trifluoropropan-2-yl)acetamide] | fold less potency than A-485 (22Rv1 cell antiproliferation): 10 fold
– | 6.60 | Cn1cc(-c2ccc3c(c2)CCC32OC(=O)N(CC(=O)N(Cc3ccc(F)cc3)[C@H]3CCc4ccccc43)C2=O)cn1 (stereo partly drawn) [B4, N-((S)-2,3-Dihydro-1H-inden-1-yl)-N-(4-fluorobenzyl)-2-(5-(1-methyl-1H-pyrazol-4-yl)-2′,4′-dioxo-2,3-dihydrospiro[indene-1,5′-oxazolidin]-3′-yl)acetamide] | –
– | 6.39 | CNC(=O)Nc1ccc2c(c1)CCC21OC(=O)N(CC(=O)N(Cc2ccc(F)cc2)[C@H]2CCc3ccccc32)C1=O (stereo partly drawn) [B5, N-((S)-2,3-Dihydro-1H-inden-1-yl)-N-(4-fluorobenzyl)-2-(5-(3-methylureido)-2′,4′-dioxo-2,3-dihydrospiro[indene-1,5′-oxazolidin]-3′-yl)acetamide] | –
– | 6.37 | CC(C)(O)Cn1cc(-c2ccc3c(c2)CCC32OC(=O)N(CC(=O)N(Cc3ccc(F)cc3)[C@H]3CCc4ccccc43)C2=O)cn1 (stereo partly drawn) [B6, N-((S)-2,3-Dihydro-1H-inden-1-yl)-N-(4-fluorobenzyl)-2-(5-(1-(2-hydroxy-2-methylpropyl)-1H-pyrazol-4-yl)-2′,4′-dioxo-2,3-dihydrospiro[indene-1,5′-oxazolidin]-3′-yl)acetamide] | –
– | 6.57 | CNC(=O)Cn1cc(-c2ccc3c(c2)CCC32OC(=O)N(CC(=O)N(Cc3ccc(F)cc3)[C@H]3CCc4ccccc43)C2=O)cn1 (stereo partly drawn) [B7, N-((S)-2,3-Dihydro-1H-inden-1-yl)-N-(4-fluorobenzyl)-2-(5-(1-(2-(methylamino)-2-oxoethyl)-1H-pyrazol-4-yl)-2′,4′-dioxo-2,3-dihydrospiro[indene-1,5′-oxazolidin]-3′-yl)acetamide] | –
– | 6.48 | CNC(=O)Cn1cc(-c2ccc3c(c2)CCC32OC(=O)N(CC(=O)N(Cc3ccc(F)cc3)[C@H]3CCc4cc(F)ccc43)C2=O)cn1 (stereo partly drawn) [B9, N-((S)-5-Fluoro-2,3-dihydro-1H-inden-1-yl)-N-(4-fluorobenzyl)-2-(5-(1-(2-(methylamino)-2-oxoethyl)-1H-pyrazol-4-yl)-2′,4′-dioxo-2,3-dihydrospiro[indene-1,5′-oxazolidin]-3′-yl)acetamide] | –
– | 5.78 | CNC(=O)Cn1cc(-c2ccc3c(c2)CCC32OC(=O)N(CC(=O)N(Cc3ccc(F)cc3)[C@@H]3CCc4ccccc43)C2=O)cn1 (stereo partly drawn) [B10, N-((R)-2,3-Dihydro-1H-inden-1-yl)-N-(4-fluorobenzyl)-2-(5-(1-(2-(methylamino)-2-oxoethyl)-1H-pyrazol-4-yl)-2′,4′-dioxo-2,3-dihydrospiro[indene-1,5′-oxazolidin]-3′-yl)acetamide] | –
– | 6.47 | CNC(=O)Cn1cc(-c2ccc3c(c2)CCC32OC(=O)N(CC(=O)N(Cc3ccc(F)cc3)[C@@H]3CCc4ncccc43)C2=O)cn1 (stereo partly drawn) [B11, N-((R)-6,7-Dihydro-5H-cyclopenta[b]pyridin-5-yl)-N-(4-fluorobenzyl)-2-(5-(1-(2-(methylamino)-2-oxoethyl)-1H-pyrazol-4-yl)-2′,4′-dioxo-2,3-dihydrospiro[indene-1,5′-oxazolidin]-3′-yl)acetamide] | fold increased potency versus B10 (22Rv1 cell antiproliferation): 5 fold
– | 6.58 | CNC(=O)Cn1cc(-c2ccc3c(c2)CCC32OC(=O)N(CC(=O)N(Cc3ccc(F)cn3)[C@@H]3CCc4ccccc43)C2=O)cn1 (stereo partly drawn) [B12, N-((R)-2,3-Dihydro-1H-inden-1-yl)-N-((5-fluoropyridin-2-yl)methyl)-2-(5-(1-(2-(methylamino)-2-oxoethyl)-1H-pyrazol-4-yl)-2′,4′-dioxo-2,3-dihydrospiro[indene-1,5′-oxazolidin]-3′-yl)acetamide] | fold increased potency versus B10 (22Rv1 cell antiproliferation): 5 fold
– | 5.46 | CNC(=O)Cn1cc(-c2ccc3c(c2)CCC32OC(=O)N(CC(=O)N(Cc3ccc(F)cn3)[C@@H]3CCc4cccnc43)C2=O)cn1 (stereo partly drawn) [B13, N-((R)-6,7-Dihydro-5H-cyclopenta[b]pyridin-7-yl)-N-((5-fluoropyridin-2-yl)methyl)-2-(5-(1-(2-(methylamino)-2-oxoethyl)-1H-pyrazol-4-yl)-2′,4′-dioxo-2,3-dihydrospiro[indene-1,5′-oxazolidin]-3′-yl)acetamide] | –
– | 6.35 | CNC(=O)Cn1cc(-c2ccc3c(c2)CCC32OC(=O)N(CC(=O)N(Cc3ccc(F)cc3)[C@H]3CCCc4ccccc43)C2=O)cn1 (stereo partly drawn) [B15, N-(4-fluorobenzyl)-2-(5-(1-(2-(methylamino)-2-oxoethyl)-1H-pyrazol-4-yl)-2′,4′-dioxo-2,3-dihydrospiro[indene-1,5′-oxazolidin]-3′-yl)-N-((S)-1,2,3,4-tetrahydronaphthalen-1-yl)acetamide] | –
– | 5.06 | CNC(=O)Nc1ccc2c(c1)CCC21OC(=O)N(CC(=O)N2CCCc3ccc(C(F)F)cc32)C1=O (stereo not drawn) [B17, 1-(3′-(2-(7-(Difluoromethyl)-3,4-dihydroquinolin-1(2H)-yl)-2-oxoethyl)-2′,4′-dioxo-2,3-dihydrospiro[indene-1,5′-oxazolidin]-5-yl)-3-methylurea] | –
– | < 4.60 | Cn1cc(-c2ccc3c(c2)CCC32OC(=O)N(CC(=O)N3CCn4c(nnc4C(F)(F)F)C3)C2=O)cn1 (stereo not drawn) [B18, 5-(1-Methyl-1H-pyrazol-4-yl)-3′-(2-oxo-2-(3-(trifluoromethyl)-5,6-dihydro-[1,2,4]triazolo[4,3-a]pyrazin-7(8H)-yl)ethyl)-2,3-dihydrospiro[indene-1,5′-oxazolidine]-2′,4′-dione] | –
< 4.00 | – | N-(4-Fluorobenzyl)-2-(2-methyl-2′,4′-dioxo-2,4,8,9-tetrahydrospiro[cyclopenta [6,7]chromeno [3,4-c]pyrazole-7,5′-oxazolidin]-3′-yl)-N-((S)-1,1,1-trifluoropropan-2-yl)acetamide [A4] | –
4.79 | – | N-(4-Fluorobenzyl)-2-(3-(1-(2-(methylamino)-2-oxoethyl)-1H-pyrazol-4-yl)-2′,4′-dioxo-5,6-dihydrospiro[cyclopenta[b]pyridine-7,5′-oxazolidin]-3′-yl)-N-((S)-1,1,1-trifluoropropan-2-yl)acetamide [A5] | –
< 4.00 | – | N-(4-Fluorobenzyl)-2-(3-(1-(2-(methylamino)-2-oxoethyl)-1H-pyrazol-4-yl)-2′,4′-dioxospiro[fluorene-9,5′-oxazolidin]-3′-yl)-N-((S)-1,1,1-trifluoropropan-2-yl)acetamide [A1] | –
4.57 | – | N-(4-Fluorobenzyl)-2-(3-(1-methyl-1H-pyrazol-4-yl)-2′,4′-dioxo-5,6-dihydrospiro [cyclopenta[c]pyridine-7,5′-oxazolidin]-3′-yl)-N-((S)-1,1,1-trifluoropropan-2-yl)acetamide [A6] | –
5.75 | – | N-(4-Fluorobenzyl)-2-(5-(1-(2-(methylamino)-2-oxoethyl)-1H-pyrazol-4-yl)-2′,5′-dioxo-2,3-dihydrospiro[indene-1,3′-pyrrolidin]-1′-yl)-N-((S)-1,1,1-trifluoropropan-2-yl)acetamide [A7] | –
5.19 | – | N-(4-Fluorobenzyl)-2-(5-(3-methylureido)-2′,5′-dioxo-2,3-dihydrospiro[indene-1,3′-pyrrolidin]-1′-yl)-N-((S)-1,1,1-trifluoropropan-2-yl)acetamide [A8] | –
6.45 | – | N-(4-Fluorobenzyl)-2-(5′-(3-methylureido)-2′′,4′′-dioxo-2′H-dispiro[cyclopropane-1,3′-indene-1′,5′′-oxazolidin]-3′′-yl)-N-((S)-1,1,1-trifluoropropan-2-yl)acetamide [A2] | –
– | – | N-(4-Fluorobenzyl)-N-((S)-1-methyl-4,5,6,7-tetrahydro-1H-indazol-4-yl)-2-(5-(1-(2-(methylamino)-2-oxoethyl)-1H-pyrazol-4-yl)-2′,4′-dioxo-2,3-dihydrospiro [indene-1,5′-oxazolidin]-3′-yl)acetamide [B14] | pIC50 (Table 2): 5.96

Compound | pIC50 (Table 1) | pIC50 (Homo sapiens, Table 2) | other results
CN1C2CCC1CC(N(Cc1ccc(F)cc1)C(=O)CN1C(=O)O[C@@]3(CCc4cc(-c5cnn(C)c5)ccc43)C1=O)C2 (stereo partly drawn) [B2, N-(4-Fluorobenzyl)-2-((R)-5-(1-methyl-1H-pyrazol-4-yl)-2′,4′-dioxo-2,3-dihydrospiro[indene-1,5′-oxazolidin]-3′-yl)-N-(8-methyl-8-azabicyclo[3.2.1]octan-3-yl)acetamide] | – | 4.42 | –
Cn1cc(-c2ccc3c(c2)CCC32OC(=O)N(CC(=O)N(Cc3ccc(F)cc3)[C@@H]3CN4CCC3CC4)C2=O)cn1 (stereo partly drawn) [B3, N-(4-Fluorobenzyl)-2-(5-(1-methyl-1H-pyrazol-4-yl)-2′,4′-dioxo-2,3-dihydrospiro [indene-1,5′-oxazolidin]-3′-yl)-N-((S)-quinuclidin-3-yl)acetamide] | – | < 4.60 | –

Source: publication PMC8198214, “Synthesis and Biological Evaluation of Spirocyclic Chromane Derivatives as a Potential Treatment of Prostate Cancer” (Molecules, 2021)
